Measured values as given in patent US11279733B2, “Peptide antibiotics” (priority 2017, dated 2022).
≈ marks a conversion by molar mass, not a printed value. Read-outs that look alike come from different tables or passages of the source. Starred links: 1 amine or outer side, 2 acyl side, 3 side chain; linkers in the order of their positions; H or OH if unused. Positions of bridges follow the written chain, without caps; N, C: chain ends. Non-standard residues stand in square brackets, D forms with d. Residues, ends and D or L forms follow the SMILES beside them. *: point of attachment. Decanoyl(3R-OH) = CCCCCCC[C@@H](O)CC(=O)*; dPhe(3-Cl) = N[C@H](Cc1cccc(Cl)c1)C(=O)O; 1Nal = N[C@@H](Cc1cccc2ccccc12)C(=O)O; Igl = N[C@H](C(=O)O)C1Cc2ccccc2C1; hPhe = N[C@@H](CCc1ccccc1)C(=O)O; azaDab = NCCN(N[*:1])C(=O)[*:2]; dDab = NCC[C@@H](N)C(=O)O; Dab = NCC[C@H](N)C(=O)O

Experiments:
[1] = system: A. baumannii ATCC 19606; details: ATCC 19606
Summary of the method: (§1)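 Mid-log cultures grown in Mueller Hinton broth at 37° C were tested by 2-fold broth microdilution at 5×10^5 CFU/mL final. Compounds were dissolved in water and tested over a final range of 32 to 0.015 μg/mL.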

[2] = system: A. baumannii GN_093 PmxR; details: GN 093 PmxR
Summary of the method: as §1

[3] = system: E. coli ATCC 25922; details: ATCC 25922
Summary of the method: as §1

[4] = system: K. pneumoniae ATCC 13883; details: ATCC 13883
Summary of the method: as §1

[5] = system: K. pneumoniae ATCC 700603, MDR; details: ATCC 700603
Summary of the method: as §1

[6] = system: K. pneumoniae ATCC BAA-2146, NDM-1 pos; details: ATCC BAA-2146
Summary of the method: as §1

[7] = system: K. pneumoniae GN_102 PmxR; details: GN 102 PmxR
Summary of the method: as §1

[8] = system: K. pneumoniae GN_106, PmxR; details: GN 106, PmxR
Summary of the method: as §1

[9] = system: P. aeruginosa ATCC 27853; details: ATCC 27853
Summary of the method: as §1

[10] = system: P. aeruginosa GN_043, PmxR
Summary of the method: as §1

[11] = system: P. aeruginosa GN_105, PmxR; details: GN 105, PmxR
Summary of the method: as §1

[12] = system: S. aureus ATCC 25923, MSSA; details: ATCC 25923
Summary of the method: as §1

[13] = in vitro; details: human
Summary of the method: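 Cells (4000/well, pre-attached 24 h) then received 5 μM resazurin for 2 h, with fluorescence measured at ex 560/em 590.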

[14] = in vitro; details: human; remark: listed apart in the source
Experimental: Cytotoxicity of the synthesised peptides was evaluated by comparison with commercially available colistin (polymyxin E), polymyxin B (Sigma chemical Co., St. Louis, Mo., U.S.A.) and synthetic octapeptin C4 by conducting lactate dehydrogenase (LDH) assay. CC50 values calculated based on curve fitting of dose dependent inhibition of cell growth represented the cytotoxicity of the peptide. Human kidney 2 (HK2) cells were seeded as 2000 cells per well in a 384 well cell culture plate in a final volume of 20 μL in DMEM/F12 medium (Invitrogen #11330057), in which 10% of FBS was added. Cells were incubated for 24 hours at 37° C., 5% CO2 to allow cells to attach to the plates. Similar conditions were employed for HEK293 and HepG2 cytotoxicity assays.
Cytotoxicity to HEK293 and HepG2 cells was determined using the resazurin assay (McMillian, M. K.; Li, L.; Parker, J. B.; Patel, L.; Zhong, Z.; Gunnett, J. W.; Powers, W. J.; Johnson, M. D. An improved resazurin-based cytotoxicity assay for hepatic cells; Cell Biol. Toxicol. 2002, 18, 157-173; O'Brien, J.; Wilson, I.; Orton, T.; Pognan, F. Investigation of the Alamar Blue (resazurin) fluorescent dye for the assessment of mammalian cell cytotoxicity. Eur. J. Biochem. 2000, 267, 5421-5426). In brief, HEK293 and HepG2 cells were seeded at 4000 cells/well in black-wall, clear-bottom 384-well plates (Corning, Australia) and incubated for 24 h at 37° C., 5% CO2. Compounds were then added into each well. After 24 h incubation, 5 μM resazurin was added per well and incubated at 37° C. for 2 h. Fluorescence intensity was then read using a Polarstar Omega with excitation/emission 560/590. The data was then analyzed using GraphPad Prism 6 software. CC50 values were determined using GraphPad Prism 6 software (Inc. La Jolla, Calif.).

[15] = system: Neisseria gonorrhoeae; test: MIC determination, Neisseria gonorrhoeae; type: cell-based; details: strain FA19 ATCC BAA-1838
Experimental: Bacteria were either obtained from American Type Culture Collection (ATCC; Manassas, Va., USA) or independent academic clinical isolate collections, as listed in Table 18 below. Bacteria were cultured in Nutrient broth (NB; Bacto Laboratories, catalogue No. 234000) or Mueller Hinton broth (MHB; Bacto Laboratories, catalogue No. 211443) at 37° C. overnight with shaking (˜180 RPM). A sample of each culture was then diluted 50-fold in fresh MHB and incubated at 37° C. for 2-3 h with shaking (˜180 RPM). Compound stock solutions were prepared as 0.64 mg/mL or 2.56 mg/mL in water. The compounds, at twice the final desired concentration, were serially diluted 2-fold across the wells of 96-well plates (Polystyrene, Corning, catalogue No. 3370). Mid-log phase bacterial cultures (after 2-3 h incubation) were diluted to a final concentration of 1×10^6 colony forming units (CFU)/mL, and 50 μL was added to each well giving a final cell density of 5×10^5 and a compound concentration range of 32 μg/mL to 0.015 μg/mL (128-0.06 μg/mL against P. aeruginosa PA9704).

| SMILES | MIC A. baumannii ATCC 19606 [1] | MIC A. baumannii GN_093 PmxR [2] | MIC E. coli ATCC 25922 [3] | MIC K. pneumoniae ATCC 13883 [4] | MIC K. pneumoniae ATCC 700603, MDR [5] | MIC K. pneumoniae ATCC BAA-2146, NDM-1 pos [6] | MIC K. pneumoniae GN_102 PmxR [7] | MIC K. pneumoniae GN_106, PmxR [8] | MIC P. aeruginosa ATCC 27853 [9] | MIC P. aeruginosa GN_105, PmxR [11] | MIC S. aureus ATCC 25923, MSSA [12] | CC50 at 24 h [13] | CC50 at 24 h [14] | MIC P. aeruginosa GN_043, PmxR ([10]; polymyxin-resistant) | MIC N. gonorrhoeae FA19 ATCC BAA-1838 [15] | other results |
| --- | --- | --- | --- | --- | --- | --- | --- | --- | --- | --- | --- | --- | --- | --- | --- | --- |
| CCCCCCC[C@@H](O)CC(=O)N[C@H](CCN)C(=O)N[C@H]1CCNC(=O)[C@H](CC(C)C)NC(=O)[C@H](CCN)NC(=O)[C@H](CCN)NC(=O)[C@@H](CC(C)C)NC(=O)[C@H](Cc2ccccc2)NC(=O)[C@H](CCN)NC1=O [compound 8640, 3(R)OH-nC9CO-D-Dab-cyc[L-Dab-L-DAB-L-Phe-D-Leu-L-Dab-L-Dab-L-Leu]] ({Decanoyl(3R-OH)}-[dDab][Dab][Dab]F[dL][Dab][Dab]L; lactam 2-C) | >32 µg/mL | >32 µg/mL | 16 µg/mL (≈ 15.3 µM) | >32 µg/mL | 32 µg/mL (≈ 30.6 µM) | >32 µg/mL | >32 µg/mL | >32 µg/mL | 8 µg/mL (≈ 7.66 µM) | >32 µg/mL | 32 µg/mL (≈ 30.6 µM) | > 300 µM | ≥ 300 µM |  |  | MIC P. aeruginosa GN_043, PmxR ([10]; P. aeruginosa GN_043, PmxR): >32 µg/mL |
| CCCCCCC[C@@H](O)CC(=O)N[C@H](CCN)C(=O)N[C@H]1CCNC(=O)[C@H](CC(C)C)NC(=O)[C@H](CCN)NC(=O)[C@H](CCN)NC(=O)[C@H](CC(C)C)NC(=O)[C@@H](Cc2ccccc2)NC(=O)N(CCN)NC1=O [compound 8636, 3(R)OH-nC9CO-D-Dab-cyc[L-Dab-azaDAB-D-Phe-L-Leu-L-Dab-L-Dab-L-Leu]] ({Decanoyl(3R-OH)}-[dDab][Dab][azaDab][dF]L[Dab][Dab]L; lactam 2-C) | >32 µg/mL |  | 16 µg/mL (≈ 15.3 µM) | >32 µg/mL | 16 µg/mL (≈ 15.3 µM) | >32 µg/mL |  |  | 4 µg/mL (≈ 3.83 µM) |  | 32 µg/mL (≈ 30.6 µM) | > 300 µM | > 300 µM |  |  | MIC A. baumannii Cl Ptyela 10073 4512:2, PmxR [2]: >32 µg/mL; MIC K. pneumoniae Cl Koprana 10065 0661:1 PmxR [7]: >32 µg/mL; MIC K. pneumoniae Cl 183-16357-20352, PmxR [8]: >32 µg/mL; MIC, P. aeruginosa FADDI-PA070, PmxR ([10]; strain name as in Table 11): >32 µg/mL; MIC P. aeruginosa PA9704, PmxR [11]: >32 µg/mL |
| CCCCCCC[C@@H](O)CC(=O)N[C@H](CCN)C(=O)N[C@H]1CCNC(=O)[C@H](C2Cc3ccccc3C2)NC(=O)[C@H](CCN)NC(=O)[C@H](CCN)NC(=O)[C@H](CC(C)C)NC(=O)[C@@H](Cc2ccccc2)NC(=O)[C@H](CCN)NC1=O [compound 8912, 3(R)OH-nC9CO-D-Dab-cyc[L-Dab-L-Dab-D-Phe-L-Leu-L-Dab-L-Dab-L-indanylgly]] ({Decanoyl(3R-OH)}-[dDab][Dab][Dab][dF]L[Dab][Dab][Igl]; lactam 2-C) | 4 µg/mL (≈ 3.62 µM) | 4 µg/mL (≈ 3.62 µM) | 2 µg/mL (≈ 1.81 µM) | 2 µg/mL (≈ 1.81 µM) | 4 µg/mL (≈ 3.62 µM) | 4 µg/mL (≈ 3.62 µM) | 2 µg/mL (≈ 1.81 µM) | 2 µg/mL (≈ 1.81 µM) | 2 µg/mL (≈ 1.81 µM) | 2 µg/mL (≈ 1.81 µM) | 2 µg/mL (≈ 1.81 µM) | 28 µM |  | 2 µg/mL (≈ 1.81 µM) | 0.78 µg/mL (≈ 0.706 µM) |  |
| CCCCCCC[C@@H](O)CC(=O)N[C@H](CCN)C(=O)N[C@H]1CCNC(=O)[C@H](Cc2cccc3ccccc23)NC(=O)[C@H](CCN)NC(=O)[C@H](CCN)NC(=O)[C@H](CC(C)C)NC(=O)[C@@H](Cc2ccccc2)NC(=O)[C@H](CCN)NC1=O [compound 8909, 3(R)OH-nC9CO-D-Dab-cyc[L-Dab-L-Dab-D-Phe-L-Leu-L-Dab-L-Dab-L-Ala(1Naphthyl)]] ({Decanoyl(3R-OH)}-[dDab][Dab][Dab][dF]L[Dab][Dab][1Nal]; lactam 2-C) | 4 µg/mL (≈ 3.54 µM) | 4 µg/mL (≈ 3.54 µM) | 2 µg/mL (≈ 1.77 µM) | 2 µg/mL (≈ 1.77 µM) | 2 µg/mL (≈ 1.77 µM) | 4 µg/mL (≈ 3.54 µM) | 4 µg/mL (≈ 3.54 µM) | 4 µg/mL (≈ 3.54 µM) | 2 µg/mL (≈ 1.77 µM) | 2 µg/mL (≈ 1.77 µM) | 2 µg/mL (≈ 1.77 µM) | 26 µM |  | 4 µg/mL (≈ 3.54 µM) | 0.78 µg/mL (≈ 0.691 µM) |  |
| CCCCCCC[C@@H](O)CC(=O)N[C@H](CCN)C(=O)N[C@H]1CCNC(=O)[C@H](CCc2ccccc2)NC(=O)[C@H](CCN)NC(=O)[C@H](CCN)NC(=O)[C@H](CC(C)C)NC(=O)[C@@H](Cc2ccccc2)NC(=O)[C@H](CCN)NC1=O [compound 8913, 3(R)OH-nC9CO-D-Dab-cyc[L-Dab-L-Dab-D-Phe-L-Leu-L-Dab-L-Dab-L-hPhe]] ({Decanoyl(3R-OH)}-[dDab][Dab][Dab][dF]L[Dab][Dab][hPhe]; lactam 2-C) | 8 µg/mL (≈ 7.32 µM) | 4 µg/mL (≈ 3.66 µM) | 2 µg/mL (≈ 1.83 µM) | 4 µg/mL (≈ 3.66 µM) | 4 µg/mL (≈ 3.66 µM) | 4 µg/mL (≈ 3.66 µM) | 2 µg/mL (≈ 1.83 µM) | 2 µg/mL (≈ 1.83 µM) | 2 µg/mL (≈ 1.83 µM) | 2 µg/mL (≈ 1.83 µM) | 4 µg/mL (≈ 3.66 µM) | 32 µM |  | 4 µg/mL (≈ 3.66 µM) | 1.56 µg/mL (≈ 1.43 µM) |  |
| CCCCCCC[C@@H](O)CC(=O)N[C@H](CCN)C(=O)N[C@H]1CCNC(=O)[C@H](Cc2c[nH]c3ccccc23)NC(=O)[C@H](CCN)NC(=O)[C@H](CCN)NC(=O)[C@H](CC(C)C)NC(=O)[C@@H](Cc2cccc(Cl)c2)NC(=O)[C@H](CCN)NC1=O [compound 8914, 3(R)OH-nC9CO-D-Dab-cyc[L-Dab-L-Dab-D-Phe(3-Cl)-L-Leu-L-Dab-L-Dab-L-Trp]] ({Decanoyl(3R-OH)}-[dDab][Dab][Dab][dPhe(3-Cl)]L[Dab][Dab]W; lactam 2-C) | 4 µg/mL (≈ 3.47 µM) | 4 µg/mL (≈ 3.47 µM) | 2 µg/mL (≈ 1.74 µM) | 2 µg/mL (≈ 1.74 µM) | 2 µg/mL (≈ 1.74 µM) | 4 µg/mL (≈ 3.47 µM) | 4 µg/mL (≈ 3.47 µM) | 4 µg/mL (≈ 3.47 µM) | 2 µg/mL (≈ 1.74 µM) | 1 µg/mL (≈ 0.868 µM) | 2 µg/mL (≈ 1.74 µM) | 25 µM |  | 4 µg/mL (≈ 3.47 µM) | 0.78 µg/mL (≈ 0.677 µM) |  |
